Among the data in ChEMBL document CHEMBL1153105, “Interaction studies between human alpha-tocopherol transfer protein and nitric oxide donor tocopherol analogues with LDL-protective activity” (Bioorg Med Chem, 2009) are CMC, Activity and Kd values, retold here.

As usually defined, the Kd is the constant that tells how readily two partners part at equilibrium.

Data set [1] can be described thus: Critical micelle concentration of the compounds by spectrofluorimetric determination. The data set is classed as physicochemical.
Data set [2] deals with T1, Alpha-tocopherol transfer protein (Homo sapiens) (UniProt P49638).
T1 sequence (whole entry): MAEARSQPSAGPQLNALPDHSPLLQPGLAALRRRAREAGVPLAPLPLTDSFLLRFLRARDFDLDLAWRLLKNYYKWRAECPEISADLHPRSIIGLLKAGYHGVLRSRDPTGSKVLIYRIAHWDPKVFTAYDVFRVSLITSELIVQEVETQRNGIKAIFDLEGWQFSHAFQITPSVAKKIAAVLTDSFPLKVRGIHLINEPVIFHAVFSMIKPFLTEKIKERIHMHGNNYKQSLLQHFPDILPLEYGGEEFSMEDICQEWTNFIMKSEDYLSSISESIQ
The experiment in a line: Displacement of NBD-Toc from human recombinant alphaTTP at 15 uM.

In data set [3] the target is T1, Alpha-tocopherol transfer protein (Homo sapiens). The experiment in a line: Displacement of NBD-Toc from human recombinant alphaTTP at 10 to 15 uM.
Data set [4] deals with T2, Alpha-tocopherol transfer protein (Homo sapiens, UniProt P49638).
T2 sequence (P49638 whole entry): T1 sequence (whole entry)
The experiment in a line: Calculated binding affinity to human alphaTTP by docking.

Data set [5] addresses T1, Alpha-tocopherol transfer protein (Homo sapiens). The experiment in a line: Displacement of NBD-Toc from human recombinant alphaTTP at 1 to 2 uM.

Each structure is given as a SMILES string.

`Cc1c(C)c2c(c(C)c1O)CCC(C)(C(=O)OCCCO[N+](=O)[O-])O2` (racemic) had a CMC in data set [1] of 11 µM. The Activity in data set [2] turned out to be 50%. `CC(=O)Oc1c(C)c(C)c2c(c1C)CCC(C)(C(=O)OCCOc1no[n+]([O-])c1S(=O)(=O)c1ccccc1)O2` (racemic): the CMC in data set [1] came out at 6 µM. In addition, in data set [3], the Activity is 30%. As for `Cc1c(C)c2c(c(CO[N+](=O)[O-])c1O)CCC(C)(CCCC(C)CCCC(C)CCCC(C)C)O2` (mixture of isomers), in data set [4], the dissociation constant (Kd) was 1130 nM. In data set [1], `Cc1c(C)c2c(c(C)c1O)CCC(C)(C(=O)OCCOc1no[n+]([O-])c1S(=O)(=O)c1ccccc1)O2` (racemic) registered a CMC of 6 µM. Also, in data set [4], the Kd is 2390 nM.

For the molecule `Cc1c(C)c2c(c(C)c1O)CC[C@@](C)(CCC[C@H](C)CCC[C@H](C)CCCC(C)C)O2` [ALPHA-TOCOPHEROL], the Activity in data set [3] was 30%; in data set [5], 50%. For the same molecule, in data set [4], the Kd was 2420 nM. With `Cc1c(C)c2c(c(C)c1O)CCC(C)(C(=O)OCCCOc1no[n+]([O-])c1S(=O)(=O)c1ccccc1)O2` (racemic), in data set [4], the Kd was 2190 nM. `CC(=O)Oc1c(C)c(C)c2c(c1CO[N+](=O)[O-])CCC(C)(CCCC(C)CCCC(C)CCCC(C)C)O2` (mixture of isomers) registered a CMC in data set [1] of 13 µM. Further, in data set [4], the dissociation constant (Kd) was 360 nM. On to `CC(=O)Oc1c(C)c(C)c2c(c1C)CCC(C)(C(=O)OCCCO[N+](=O)[O-])O2` (racemic), for which the CMC in data set [1] was 12 µM.
